According to patent US20250101019A1 (Insilico Medicine IP Limited, priority 2022, published 2025):

Columns and labels:
ENPP1 [1] = molecular target: T1, ENPP1 (Homo sapiens (Human), UniProt P22413); experiment: cGAMP-Glo enzymatic assay (2′3′-cGAMP substrate, AMP-Glo readout); type: biochemical; conditions: substrate 2′3′-cGAMP; 25° C. for 60 min; 50 mM Tris pH 8.8
Description: (§1) Example A: Enzymatic Assay
(§2) • 1. Diluted compounds in DMSO by hand for 11 points, 3 folds dilution. Then transferred 0.02 μL compounds to 384 assay plate by ECHO. • 2. Added 2 μL specified concentration of ENPP1 to 384 assay plate. Centrifuged 1000 RPM for 1 min. • 3. Added 2 μL specified concentration of ATP to the assay plate. Centrifuged 1000 RPM for 1 min. • 4. Incubated at 25° C. for 60 min. • 5. Added 4 μL AMP-Glo Reagent to the assay plates. • 6. Centrifuged 1000 RPM for 1 min, incubate at 25° C. for 1 hours. • 7. Added 8 μL Kinase Detection Reagent to the assay plates. • 8. Centrifuged 1000 RPM for 1 min, incubated at 25° C. for 1 hours. The final assay reaction mixture contained a buffer of 50 mM Tris pH 8.8, 250 mM NaCl and 0.1% BSA • 9. Read on Envision for US LUM as RLU. • 10. Analyzed the raw data using the equation (V. Data analysis). cGAMP-Glo Assay: • 1. Diluted compounds in DMSO by hand for 11 points, 3 folds dilution. Then transferred 0.02 μL compounds to 384 assay plate by ECHO. • 2. Added 2 μL specified concentration of ENPP1 to 384 assay plate, centrifuged 1000 RPM for 1 min. • 3. Added 2 μL specified concentration of 2′3′-cGAMP to the assay plate, centrifuged 1000 RPM for 1 min. • 4. Incubated at 25° C. for 60 min. • 5. Added 4 μL AMP-Glo Reagent to the assay plates. • 6. Centrifuged 1000 RPM for 1 min, incubated at 25° C. for 1 hours. • 7. Added 8 μL Kinase Detection Reagent to the assay plates. • 8. Centrifuged 1000 RPM for 1 min, incubate at 25° C. for 1 hours. The final assay reaction mixture contained a buffer of 50 mM Tris pH 8.8, 250 mM NaCl and 0.1% BSA • 9. Read on Envision for US LUM as RLU. • 10. Analyzed the raw data using the equation (V. Data analysis).

ENPP1 [2] = molecular target: T1, ENPP1; experiment: ATP-Glo enzymatic assay (ATP substrate, AMP-Glo readout); type: biochemical; conditions: 25° C. for 60 min, 50 mM Tris pH 8.8
Description: as §1, §2

T1 sequence (P22413 whole entry, species assumed): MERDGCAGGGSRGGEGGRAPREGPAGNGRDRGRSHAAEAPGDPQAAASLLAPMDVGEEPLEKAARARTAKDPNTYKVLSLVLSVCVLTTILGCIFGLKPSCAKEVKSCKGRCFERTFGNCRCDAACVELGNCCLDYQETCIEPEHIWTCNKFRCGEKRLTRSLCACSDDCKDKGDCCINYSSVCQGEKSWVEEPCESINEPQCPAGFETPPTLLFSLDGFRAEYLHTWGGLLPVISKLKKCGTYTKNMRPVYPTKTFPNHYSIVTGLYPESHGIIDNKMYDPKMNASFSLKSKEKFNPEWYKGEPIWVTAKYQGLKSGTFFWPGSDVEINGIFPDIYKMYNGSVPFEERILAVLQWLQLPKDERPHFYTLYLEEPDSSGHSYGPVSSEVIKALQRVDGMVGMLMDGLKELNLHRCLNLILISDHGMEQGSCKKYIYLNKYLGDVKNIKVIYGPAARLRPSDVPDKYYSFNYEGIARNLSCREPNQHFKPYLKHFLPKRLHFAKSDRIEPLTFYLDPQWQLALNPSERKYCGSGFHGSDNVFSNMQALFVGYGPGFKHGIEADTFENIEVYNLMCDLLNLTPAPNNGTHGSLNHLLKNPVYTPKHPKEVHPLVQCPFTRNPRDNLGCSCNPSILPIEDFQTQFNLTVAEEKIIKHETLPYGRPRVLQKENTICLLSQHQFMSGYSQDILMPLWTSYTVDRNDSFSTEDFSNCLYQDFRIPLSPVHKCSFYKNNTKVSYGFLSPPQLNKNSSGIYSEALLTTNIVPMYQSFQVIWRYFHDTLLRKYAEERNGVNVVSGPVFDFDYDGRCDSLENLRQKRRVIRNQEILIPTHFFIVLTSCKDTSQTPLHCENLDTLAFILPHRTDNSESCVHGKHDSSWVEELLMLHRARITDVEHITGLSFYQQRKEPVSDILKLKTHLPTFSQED

Row | IC50 (ENPP1 [1]) | IC50 (ENPP1 [2]) | SMILES
1 | < 1 nM | < 1 nM | Cc1ncc2nc(C(F)(F)F)n(Cc3c(F)cc(S(N)(=O)=O)cc3F)c2c1-c1ccccc1 [Example 34, 3,5-difluoro-4-((6-methyl-7-phenyl-2-(trifluoromethyl)-1H-imidazo[4,5-c]pyridin-1-yl)methyl)benzenesulfonamide]
2 | < 1 nM | < 1 nM | COc1ncc2ncn(Cc3ccc(S(N)(=O)=O)cc3)c2c1-c1ccccc1 [Example 23, 4-((6-methoxy-7-phenyl-1H-imidazo[4,5-c]pyridin-1-yl)methyl)benzenesulfonamide]
3 | < 1 nM | < 1 nM | Cc1ncc2nc(C)n(Cc3ccc(S(N)(=O)=O)cc3)c2c1-c1ccccc1 [Example 31, 4-((2,6-dimethyl-7-phenyl-1H-imidazo[4,5-c]pyridin-1-yl)methyl)benzene sulfonamide]
4 | < 1 nM | < 1 nM | Cc1ncc(-c2ccccc2)c2c1ncn2Cc1ccc(S(N)(=O)=O)cc1 [Example 30, 4-((4-methyl-7-phenyl-1H-imidazo[4,5-c]pyridin-1-yl)methyl)benzene sulfonamide]
5 | < 1 nM | < 1 nM | Cc1ncc2nc(CN3CCCC3)n(Cc3c(F)cc(S(N)(=O)=O)cc3F)c2c1-c1ccccc1 [Example 60, 3,5-difluoro-4-((6-methyl-7-phenyl-2-(pyrrolidin-1-ylmethyl)-1H-imidazo[4,5-c]pyridin-1-yl)methyl)benzenesulfonamide]
6 | 10 to 100 nM | 100 to 1000 nM | COc1ncc2c(C)cn(Cc3ccc(NS(N)(=O)=O)cc3)c2c1-c1ccn(C)n1 [Example 1, N-(4-((6-methoxy-3-methyl-7-(1-methyl-1H-pyrazol-3-yl)-1H-pyrrolo[3,2-c]pyridin-1-yl)methyl)phenyl) sulfamide]
7 | < 1 nM | < 1 nM | Cc1ncc2nc(CN(C)C)n(Cc3c(F)cc(S(N)(=O)=O)cc3F)c2c1-c1ccccc1 [Example 49]
8 | < 1 nM | < 1 nM | COc1ncc2nc(C)n(Cc3ncc(S(N)(=O)=O)cc3F)c2c1-c1ccccc1 [Example 73, 5-fluoro-6-((6-methoxy-2-methyl-7-phenyl-1H-imidazo[4,5-c]pyridin-1-yl)methyl)pyridine-3-sulfonamide]
9 | 1 to 10 nM | 1 to 10 nM | Cc1ncc2c(C)cn(Cc3c(F)cc(S(N)(=O)=O)cc3F)c2c1-c1ccn(C)n1 [Example 17, 4-((3,6-dimethyl-7-(1-methyl-1H-pyrazol-3-yl)-1H-pyrrolo[3,2-c]pyridin-1-yl)methyl)-3,5-difluorobenzenesulfonamide]
10 | < 1 nM | < 1 nM | COc1ncc2nc(C)n(Cc3c(F)cc(S(N)(=O)=O)cc3F)c2c1-c1ccccc1 [Example 24, 3,5-difluoro-4-((6-methoxy-2-methyl-7-phenyl-1H-imidazo[4,5-c]pyridin-1-yl)methyl)benzenesulfonamide]
11 | < 1 nM | < 1 nM | COc1ncc2nc(C)n(Cc3ccc(S(N)(=O)=O)cn3)c2c1-c1ccccc1 [Example 74, 6-((6-methoxy-2-methyl-7-phenyl-1H-imidazo[4,5-c]pyridin-1-yl)methyl)pyridine-3-sulfonamide]
12 | < 1 nM | < 1 nM | Cc1ncc(-c2ccccc2)c2c1nc(C)n2Cc1ccc(S(N)(=O)=O)cc1 [Example 32, 4-((2,4-dimethyl-7-phenyl-1H-imidazo[4,5-c]pyridin-1-yl)methyl)benzene sulfonamide]
13 | < 1 nM | < 1 nM | Cc1ncc2nc(C)n(Cc3c(F)cc(S(N)(=O)=O)cc3F)c2c1-c1ccc(F)cc1 [Example 46, 3,5-difluoro-4-((7-(4-fluorophenyl)-2,6-dimethyl-1H-imidazo[4,5-c]pyridin-1-yl)methyl)benzenesulfonamide]
14 | 1 to 10 nM | 1 to 10 nM | COc1ncc2nc(C)n(C(C)c3ccc(S(N)(=O)=O)cc3)c2c1-c1ccccc1 (stereo not drawn) [Example 35, 4-(1-(6-methoxy-2-methyl-7-phenyl-1H-imidazo[4,5-c]pyridin-1-yl)ethyl) benzenesulfonamide]
15 | < 1 nM | < 1 nM | COc1ncc2c(c1C1=CCCC1)n(Cc1c(F)cc(S(N)(=O)=O)cc1F)c(=O)n2C [Example 61, 4-((7-(cyclopent-1-en-1-yl)-6-methoxy-3-methyl-2-oxo-2,3-dihydro-1H-imidazo[4,5-c]pyridin-1-yl)methyl)-3,5-difluorobenzenesulfonamide]
16 | 100 to 1000 nM | 100 to 1000 nM | COc1ncc2ccn(Cc3ccc(S(N)(=O)=O)cc3)c2c1-c1cnn(C(F)(F)F)c1 [Example 11, 4-((6-methoxy-7-(1-(trifluoromethyl)-1H-pyrazol-4-yl)-1H-pyrrolo[3,2-c]pyridin-1-yl)methyl)benzenesulfonamide]
17 | < 1 nM | < 1 nM | Cc1ncc2ncn(Cc3c(F)cc(S(N)(=O)=O)cc3F)c2c1-c1ccccc1 [Example 27, 3,5-difluoro-4-((6-methyl-7-phenyl-1H-imidazo[4,5-c]pyridin-1-yl)methyl)benzene sulfonamide]
18 | < 1 nM | < 1 nM | Cc1ncc2c(c1-c1ccccc1)n(Cc1ccc(S(N)(=O)=O)cn1)c(=O)n2C [Example 81, 6-((3,6-dimethyl-2-oxo-7-phenyl-2,3-dihydro-1H-imidazo[4,5-c]pyridin-1-yl)methyl)pyridine-3-sulfonamide]
19 | < 1 nM | < 1 nM | Cc1ncc2nc(C(F)F)n(Cc3ccc(S(N)(=O)=O)cn3)c2c1-c1ccccc1 [Example 71]
20 | < 1 nM | < 1 nM | COc1ncc2c(C)cn(Cc3ccc(S(N)(=O)=O)cc3)c2c1-c1ccccc1 [Example 10, 4-((6-methoxy-3-methyl-7-phenyl-1H-pyrrolo[3,2-c]pyridin-1-yl)methyl)benzene sulfonamide]
21 | 1 to 10 nM | 10 to 100 nM | COc1ncc2cnn(Cc3ccc(S(N)(=O)=O)cc3)c2c1-c1ccccc1 [Example 21, 4-((6-methoxy-7-phenyl-1H-pyrazolo[4,3-c]pyridin-1-yl)methyl)benzenesulfonamide]
22 | < 1 nM | < 1 nM | COc1ncc2c(c1-c1ccccc1)n(Cc1ncc(S(N)(=O)=O)cc1F)c(=O)n2C [Example 80, 5-fluoro-6-((6-methoxy-3-methyl-2-oxo-7-phenyl-2,3-dihydro-1H-imidazo[4,5-c]pyridin-1-yl)methyl)pyridine-3-sulfonamide]
23 | < 1 nM | < 1 nM | Cc1ncc2c(c1-c1ccccc1)n(Cc1ncc(S(N)(=O)=O)cc1F)c(=O)n2C [Example 79, 6-((3,6-dimethyl-2-oxo-7-phenyl-2,3-dihydro-1H-imidazo[4,5-c]pyridin-1-yl)methyl)-5-fluoropyridine-3-sulfonamide]
24 | < 1 nM | < 1 nM | Cc1ncc2c(c1-c1ccccc1)n(Cc1ccc(S(N)(=O)=O)cc1)c(=O)n2C [Example 20, 4-((3,6-dimethyl-2-oxo-7-phenyl-2,3-dihydro-1H-imidazo[4,5-c]pyridin-1-yl)methyl)benzenesulfonamide]
25 | < 1 nM | < 1 nM | CC#Cc1c(C)ncc2nc(C)n(Cc3c(F)cc(S(N)(=O)=O)cc3F)c12 [Example 64, 4-((2,6-dimethyl-7-(prop-1-yn-1-yl)-1H-imidazo[4,5-c]pyridin-1-yl)methyl)-3,5-difluorobenzenesulfonamide]
26 | < 1 nM | < 1 nM | COc1ncc2ccn(Cc3ccc(S(N)(=O)=O)cc3)c2c1-c1ccccc1 [Example 9, 4-((6-methoxy-7-phenyl-1H-pyrrolo[3,2-c]pyridin-1-yl)methyl)benzene sulfonamide]
27 | < 1 nM | < 1 nM | Cc1ncc2nc(C)n(Cc3ccc(S(N)(=O)=O)cn3)c2c1-c1ccccc1 [Example 65, 6-((2,6-dimethyl-7-phenyl-1H-imidazo[4,5-c]pyridin-1-yl)methyl)pyridine-3-sulfonamide]
